Measurements reported in patent publication US20240067613A1, “NOVEL QUINAZOLINE DERIVATIVES AS SOS1 INHIBITORS AND USE THEREOF” (HANMI PHARMACEUTICAL CO., LTD., priority 2020, published 2024).

target: T1, SOS1 binding to KRAS G12C (Homo sapiens, UniProt Q07889); test: SOS1 GTP substitution inhibition test (HTRF/TR-FRET, KRAS G12C-SOS1 binding inhibitory ability); type: biochemical; conditions: HTRF, GST-KRAS G12C (2-169), SOS1-Strep (564-1049), 1.6, 8, 40, 200, 1,000 nM
T1 construct: consisting of amino acid residues 564 to 1049 which are the catalytic domain; purchased Reaction Biology Corporation MSC-11-502 (SOS1-Strep); MSC-11-538 (KRAS G12C)
T1 sequence (Q07889 564-1049): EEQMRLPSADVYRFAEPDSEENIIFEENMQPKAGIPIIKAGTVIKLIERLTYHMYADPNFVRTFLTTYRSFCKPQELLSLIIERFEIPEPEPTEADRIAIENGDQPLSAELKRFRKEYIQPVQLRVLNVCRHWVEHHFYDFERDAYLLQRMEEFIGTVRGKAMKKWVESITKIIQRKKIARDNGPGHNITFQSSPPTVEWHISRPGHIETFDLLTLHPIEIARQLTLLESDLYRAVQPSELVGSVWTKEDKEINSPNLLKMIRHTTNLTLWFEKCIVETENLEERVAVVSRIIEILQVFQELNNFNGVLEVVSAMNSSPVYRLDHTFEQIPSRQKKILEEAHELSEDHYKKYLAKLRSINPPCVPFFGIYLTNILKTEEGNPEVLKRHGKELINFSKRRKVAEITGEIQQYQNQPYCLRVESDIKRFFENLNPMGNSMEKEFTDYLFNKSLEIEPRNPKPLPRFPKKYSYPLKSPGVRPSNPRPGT
Procedure: In order to determine whether the substitution function of SOS1 binding to KRAS G12C is inhibited by the above-described example compounds, a homogeneous time-resolved fluorescence (HTRF) test was performed using G12C(#MSC-11-538) and SOS1-Strep(#MSC-11-502) purchased from Reaction Biology Corporation (MA, USA). The activity of SOS1 enzyme was determined by measuring the amount of GTP bound to KRAS G12C proteins, using the principle of time-resolved fluorescence energy transfer (TR-FRET). Based on the principle that terbium bound to the GST-binding antibody of the GST-KRAS G12C protein acts as a donor of fluorescence resonance energy transfer (FRET), and the GTP bound to the KRAS G12C protein is labeled with the fluorescent agent DY-647P1 and acts as a receiver, when the more GTP is bound to the KRAS G12C protein by the substitution reaction of SOS1 according to this test, the higher HTRF or FRET signal is measured. To summarize, glutathione S-transferase (GST)-tagged KRAS G12C proteins (consisting of amino acid residues 2 to 169) required for the reaction, streptavidin-tagged SOS1 proteins (consisting of amino acid residues 564 to 1049 which are the catalytic domain), anti-GST antibody (#61[…]) purchased from CISBIO corporation, nucleic acid (#NU-820-647P1) purchased from Jena Bioscience GmbH were mixed in a buffer solution formed from 10 mM HEPES pH7.4, 150 mM NaCl, 5 mM MgCl2, and 1 mM dithiothreitol (DTT), and the mixture was added to a 384-well plate and reacted at room temperature. Next, FRET signals were measured with a Perkin Elmer Envision microplate reader. In this case, an excitation signal (excitation) was measured at 320 nm, and an emission signal (emission) was measured at 615/665 nm. The fluorescence measurement value when the SOS1 protein was not included was calculated as a background signal value, and the background signal value was subtracted from all of the measured HTRF values. The fluorescence measurement value when the synthesized compound was not included was measured as a control value, and this value was selected as a reference point of 100%. For each of the example compounds, fluorescence was measured at concentrations of 1.6, 8, 40, 200, and 1,000 nM (5 points, 5-fold), and the 50% activity inhibition value (IC50) of each of the compounds was calculated using GraphPad Prism. When the IC50 value was 50 nM or less, the inhibitory ability was denoted as +++. When the IC50 value was more than 50 nM and 100 nM or less, the inhibitory ability was denoted as ++. When the IC50 value was more than 100 nM, the inhibitory ability was denoted as +.

**Q.** `CNc1cc2c(N[C@H](C)c3cc(N)cc(C(F)(F)F)c3F)nc(C)nc2cc1C(=O)N1CCOCC1` [Example 50, (R)-(4-((1-(5-amino-2-fluoro-3-(trifluoromethyl)phenyl)ethyl)amino)-2-methyl-6-(methylamino)quinazoline-7-yl)(morpholino)methanone] was tested. Which IC50 did it give?
**A.** ≤ 50 nM

**Q.** How did the IC50 turn out when `CNc1cc2c(N[C@H](C)c3cc(N)cc(C(F)F)c3)nc(C)nc2cc1C(=O)N1CCOCC1` [Example 51, (R)-(4-((1-(3-amino-5-(difluoromethyl)phenyl)ethyl)amino)-2-methyl-6-(methylamino)quinazoline-7-yl)(morpholino)methanone] was run?
**A.** ≤ 50 nM

**Q.** `CCNc1cc2c(N[C@H](C)c3cc(N)cc(C(F)F)c3F)nc(C)nc2cc1C(=O)N1CCOCC1` [Example 52, (R)-(4-((1-(5-amino-3-(difluoromethyl)-2-fluorophenyl)ethyl)amino)-6-(ethylamino)-2-methylquinazoline-7-yl)(morpholino)methanone] was tested. Which IC50 did it give?
**A.** 50 to 100 nM

**Q.** For `CNc1cc2c(N[C@H](C)c3cc(N)cc(C(F)(F)F)c3)nc(C)nc2cc1C(=O)N1CCSC1` [Example 53, (R)-(4-((1-(3-amino-5-(trifluoromethyl)phenyl)ethyl)amino)-2-methyl-6-(methylamino)quinazoline-7-yl)(thiazolidine-3-yl)methanone], which IC50 is on record?
**A.** ≤ 50 nM

**Q.** Which IC50 does the source give for `CNc1cc2c(N[C@H](C)c3cc(N)cc(-c4ccoc4)c3)nc(C)nc2cc1C(=O)N1CCOCC1` [Example 54, (R)-(4-((1-(3-amino-5-(furan-3-yl)phenyl)ethyl)amino)-2-methyl-6-(methylamino)quinazolin-7-yl)(morpholino)methanone] here?
**A.** 50 to 100 nM

**Q.** `Cc1nc(N[C@H](C)c2cc(N)cc(C(F)F)c2F)c2cc(NC(C)C)c(C(=O)N3CCOCC3)cc2n1` [Example 55, (R)-4-((1-(5-amino-3-(difluoromethyl)-2-fluorophenyl)ethyl)amino)-6-(isopropylamino)-2-methylquinazoline-7-(yl)(morpholino)methanone] was tested. Which IC50 did it give?
**A.** ≤ 50 nM

**Q.** `COCCNc1cc2c(N[C@H](C)c3cc(N)cc(C(F)F)c3F)nc(C)nc2cc1C(=O)N1CCOCC1` [Example 56, (R)-(4-((1-(5-amino-3-(difluoromethyl)-2-fluorophenyl)ethyl)amino)-6-((2-methoxyethyl)amino)-2-methylquinazolin-7-yl)(morpholino)methanone] was tested. Which IC50 did it give?
**A.** ≤ 50 nM

**Q.** For `CNc1cc2c(N[C@H](C)c3cc(N)cc(C(F)(F)F)c3)nc(C)nc2cc1C(=O)N1CCN(C)CC1` [Example 57, (R)-(4-((1-(3-amino-5-(trifluoromethyl)phenyl)ethyl)amino)-2-methyl-6-(methylamino)quinazoline-7-yl)(4-methylpiperazin-1-yl)methanone], which IC50 is on record?
**A.** 50 to 100 nM

**Q.** How did the IC50 turn out when `CNc1cc2c(N[C@H](C)c3cc(N)cc(C(F)(F)F)c3)nc(C)nc2cc1C(=O)N1CC2COCC2C1` (stereo partly drawn) [Example 58, (4-(((R)-1-(3-amino-5-(trifluoromethyl)phenyl)ethyl)amino)-2-methyl-6-(methylamino)quinazoline-7-yl)(tetrahydro-1H-furo[3,4-c]pyrrol-5(3H)-yl)methanone] was run?
**A.** ≤ 50 nM

**Q.** How did the IC50 turn out when `CNc1cc2c(N[C@H](C)c3cc(N)cc(C(F)(F)F)c3)nc(C)nc2cc1C(=O)N1CCS(=O)(=O)CC1` [Example 59, (R)-(4-((1-(3-amino-5-(trifluoromethyl)phenyl)ethyl)amino)-2-methyl-6-(methylamino)quinazolin-7-yl)(1,1-dioxothiomorpholino)methanone] was run?
**A.** ≤ 50 nM

**Q.** How did the IC50 turn out when `CNc1cc2c(N[C@H](C)c3cc(N)cc(C(F)(F)F)c3)nc(C)nc2cc1C(=O)N1CCSCC1` [Example 60, (R)-(4-((1-(3-amino-5-(trifluoromethyl)phenyl)ethyl)amino)-2-methyl-6-(methylamino)quinazolin-7-yl)(thiomorpholino)methanone] was run?
**A.** ≤ 50 nM

**Q.** With `CNc1cc2c(N[C@H](C)c3cc(N)cc(C(F)(F)F)c3)nc(C)nc2cc1C(=O)N1CCNCC1` [Example 61, (R)-(4-((1-(3-amino-5-(trifluoromethyl)phenyl)ethyl)amino)-2-methyl-6-(methylamino)quinazoline-7-yl)(piperazine-1-yl)methanone] as the compound, how does the IC50 read?
**A.** ≤ 50 nM

**Q.** Which IC50 does the source give for `CNc1cc2c(N[C@H](C)c3cc(N)cc(C(F)(F)F)c3)nc(C)nc2cc1C(=O)N1CCC1` [Example 62, (R)-(4-((1-(3-amino-5-(trifluoromethyl)phenyl)ethyl)amino)-2-methyl-6-(methylamino)quinazoline-7-yl)(azetidine-1-yl)methanone] here?
**A.** 50 to 100 nM

**Q.** `CNc1cc2c(N[C@H](C)c3cc(N)cc(C(F)F)c3F)nc(C)nc2cc1C(=O)N1CC2COCC2C1` (stereo partly drawn) [Example 63, (4-(((R)-1-(5-amino-3-(difluoromethyl)-2-fluorophenyl)ethyl)amino)-2-methyl-6-(methylamino)quinazoline-7-yl)(tetrahydro-1H-furo[3,4-c]pyrrol-5(3H)-yl)methanone] was tested. Which IC50 did it give?
**A.** ≤ 50 nM

**Q.** How did the IC50 turn out when `CNc1cc2c(N[C@H](C)c3cc(N)cc(C(F)F)c3F)nc(C)nc2cc1C(=O)N1CCS(=O)(=O)CC1` [Example 64, (R)-(4-((1-(5-amino-3-(difluoromethyl)-2-fluorophenyl)ethyl)amino)-2-methyl-6-(methylamino)quinazoline-7-yl)(1,1-dioxothiomorpholino)methanone] was run?
**A.** ≤ 50 nM

**Q.** How did the IC50 turn out when `CNc1cc2c(N[C@H](C)c3cc(C)cc(N)c3)nc(C)nc2cc1C(=O)N1CCOCC1` [Example 65, (R)-(4-((1-(3-amino-5-methylphenyl)ethyl)amino)-2-methyl-6-(methylamino)quinazolin-7-yl)(morpholino)methanone] was run?
**A.** 50 to 100 nM

**Q.** For `COCCNc1cc2c(N[C@H](C)c3cc(N)cc(C(F)(F)F)c3)nc(C)nc2cc1C(=O)N1CCS(=O)(=O)CC1` [Example 68, (R)-(4-((1-(3-amino-5-(trifluoromethyl)phenyl)ethyl)amino)-6-((2-methoxyethyl)amino)-2-methylquinazoline-7-yl)(1,1-dioxothiomorpholino)methanone], which IC50 is on record?
**A.** ≤ 50 nM

**Q.** How did the IC50 turn out when `COc1cc2c(N[C@H](C)c3cc(N)cc(C(F)(F)F)c3)nc(C)nc2cc1NC1CCOCC1` [Example 69, (R)-NM-(1-(3-amino-5-(trifluoromethyl)phenyl)ethyl)-6-methoxy-2-methyl-N^7-(tetrahydro-2H-pyran-4-yl)quinazoline-4,7-diamine] was run?
**A.** > 100 nM
